Measurements reported in US8044211B2 (Chroma Therapeutics Ltd., priority 2006, dated 2011).
pIC50: −log10 of the molar value. Like-named read-outs stand apart in the source and are kept apart here.

How the values were obtained:
p38 MAP Kinase a = target: T1, p38 MAP Kinase a (Homo sapiens, UniProt Q16539); test: p38 MAP Kinase activity, radiometric filter-binding assay (Upstate); assay type: biochemical; details: IC50 range; ATP at or close to Km; read-out: Inhibitor activity versus p38 MAPKa
T1 construct: purchased Upstate (Dundee UK)
T1 sequence (Q16539 whole entry): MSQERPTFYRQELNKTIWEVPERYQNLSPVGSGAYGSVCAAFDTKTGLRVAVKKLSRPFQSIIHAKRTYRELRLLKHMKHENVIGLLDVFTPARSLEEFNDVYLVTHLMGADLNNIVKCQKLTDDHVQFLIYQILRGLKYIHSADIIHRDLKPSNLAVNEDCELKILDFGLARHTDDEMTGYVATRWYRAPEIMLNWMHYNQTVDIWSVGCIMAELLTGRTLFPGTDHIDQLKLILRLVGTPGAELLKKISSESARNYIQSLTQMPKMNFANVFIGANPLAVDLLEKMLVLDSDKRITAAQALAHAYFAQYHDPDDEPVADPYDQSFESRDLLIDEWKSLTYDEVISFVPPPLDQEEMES
Procedure: The ability of compounds to inhibit p38 MAP a Kinase activity was measured in an assay performed by Upstate (Dundee UK). In a final reaction volume of 25 μL, p38 MAP Kinase a (5-10 mU) is incubated with 25 mM Tris pH 7.5, 0.002 mMEGTA, 0.33 mg/mL myelin basic protein, 10 mM MgAcetate and [g-33P-ATP] (specific activity approx. 500 cpm/pmol, concentration as required). The reaction is initiated by the addition of the MgATP mix. After incubation for 40 minutes at room temperature, the reaction is stopped by the addition of 5 μL of a 3% phosphoric acid solution. 10 μL of the reaction is then spotted onto a P30 filtermat and washed three times for 5 minutes in 75 mM phosphoric acid and once in methanol prior to drying and scintillation counting.
Duplicate data points are generated from a ⅓ log dilution series of a stock solution in DMSO. Nine dilutions steps are made from a top concentration of 10 μM, and a ‘no compound’ blank is included. The standard radiometric filter-binding assay is performed at an ATP concentration at, or close to, the Km. Data from scintillation counts are collected and subjected to free-fit analysis by Prism software. From the curve generated, the concentration giving 50% inhibition is determined and reported.

THP-1 TNFα release = test: LPS-stimulation of THP-1 cells, TNF-α by ELISA; assay type: cell-based; details: IC50 range, LPS 1 μg/ml, 6 hrs, read-out: Inhibitor activity versus THP-1 TNFα release
Procedure: THP-1 cells were plated in 100 μl at a density of 4×10^4 cells/well in V-bottomed 96 well tissue culture treated plates and incubated at 37° C. in 5% CO2 for 16 hrs. 2 hrs after the addition of the inhibitor in […], of tissue culture media, the cells were stimulated with LPS (E. coli strain 005:B5, Sigma) at a final concentration of 1 μg/ml and incubated at 37° C. in 5% CO2 for 6 hrs. TNF-α levels were measured from cell-free supernatants by sandwich ELISA (R&D Systems #QTA00B).

Row | Molecule | pIC50 (p38 MAP Kinase a) | pIC50 (THP-1 TNFα release; Homo sapiens, THP-1) | pIC50 (THP-1 TNFα release)
1 | Nc1c(C(=O)c2ccc(F)cc2)ccc(=O)n1-c1c(F)cc(OC2CCC(N[C@H](C(=O)OC3CCCC3)c3ccccc3)CC2)cc1F (stereo partly drawn) [Example 32, Cyclopentyl(2S)-[(4-{4-[6-amino-5-(4-fluorobenzoyl)-2-oxopyridin-1(2H)-yl]-3,5-difluorophenoxy}cyclohexyl)amino](phenyl)acetate] | > 7.00 | > 7.00 | 
2 | Cyclopentyl(S)-2-{4-[6-Amino-5-(2,4-fluorobenzoyl)-2-oxo-2H-pyridin-1-yl]-3,5-difluorobenzylamino}-3-phenylpropionate [Example 10] | > 7.00 |  | 6.00 to 7.00
3 | Nc1c(C(=O)c2ccc(F)cc2F)ccc(=O)n1-c1ccc(OCCCN[C@@H](Cc2ccccc2)C(=O)OC2CCCC2)cc1 [Example 29, Cyclopentyl(S)-2-(3-{4-[6-Amino-5-(2,4-difluorobenzoyl)-2-oxo-2H-pyridin-1-yl]phenoxy}propylamino)-3-phenyl propionate] | > 7.00 | 6.00 to 7.00 | 
4 | Nc1c(C(=O)c2ccc(F)cc2)ccc(=O)n1C1CCC(N[C@@H](Cc2ccccc2)C(=O)OC2CCCC2)CC1 (single isomer, unassigned) [Example 35] | 6.00 to 7.00 |  | < 6.00
5 | Nc1c(C(=O)c2ccc(F)cc2)ccc(=O)n1-c1c(F)cc(OCCCN[C@H](C(=O)OC2CCCC2)c2ccccc2)cc1F [Example 13, Cyclopentyl(S)-(3-{4-[6-Amino-5-(4-fluorobenzoyl)-2-oxo-2H-pyridin-1-yl]-3,5-difluorophenoxy}propylamino)phenylacetate] | > 7.00 | > 7.00 | 
6 | Nc1c(C(=O)c2ccc(F)cc2)ccc(=O)n1-c1ccc(CN[C@@H](Cc2ccccc2)C(=O)O)cc1 [Example 78, (S)-2-{4-[6-Amino-5-(4-fluorobenzoyl)-2-oxo-2H-pyridin-1-yl]benzylamino}-3-phenylpropionic acid] | 6.00 to 7.00 |  | 
7 | Cc1cc(C(=O)c2ccc(=O)n(-c3ccc(CN[C@H](C(=O)O)c4ccccc4)cc3)c2N)ccc1F [Example 76, (S)-{4-[6-Amino-5-(3-methyl-4-fluorobenzoyl)-2-oxo-2H-pyridin-1-yl]benzylamino}phenylacetic acid] | 6.00 to 7.00 |  | 

Second part, led by results:

Row | pIC50 (p38 MAP Kinase a) | pIC50 (THP-1 TNFα release; Homo sapiens, THP-1) | Molecule | pIC50 (THP-1 TNFα release)
8 | 6.00 to 7.00 |  | CC(C)C[C@H](NCc1ccc(-n2c(N)c(C(=O)c3ccc(F)cc3)ccc2=O)cc1)C(=O)O [Example 79, (S)-2-{4-[6-Amino-5-(4-fluorobenzoyl)-2-oxo-2H-pyridin-1-yl]benzylamino}-4-methylpentanoic acid] | 
9 | > 7.00 |  | CC(C)C[C@@H](NCCCOc1cc(F)c(-n2c(N)c(C(=O)c3ccc(F)cc3F)ccc2=O)c(F)c1)C(=O)O [Example 108, N-(3-{4-[6-amino-5-(2,4-difluorobenzoyl)-2-oxopyridin-1(2H)-yl]-3,5-difluorophenoxy}propyl)-D-leucine] | 
10 | > 7.00 |  | Cc1cc(C(=O)c2ccc(=O)n(-c3ccc(OCCCN[C@@H](CC(C)C)C(=O)O)cc3)c2N)ccc1F [Example 88, (S)-2-(3-{4-[6-Amino-5-(4-fluoro-3-methylbenzoyl)-2-oxo-2H-pyridin-1-yl]phenoxy}propylamino)-4-methylpentanoic acid] | 
11 | > 7.00 |  | Cc1cc(C(=O)c2ccc(=O)n(-c3ccc(OCCCN[C@@H](Cc4ccccc4)C(=O)O)cc3)c2N)ccc1F [Example 83, (S)-2-(3-{4-[6-Amino-5-(3-methyl-4-fluorobenzoyl)-2-oxo-2H-pyridin-1-yl]phenoxy}propylamino)-3-phenyl propionic acid] | 
12 | > 7.00 |  | Nc1c(C(=O)c2ccc(F)cc2F)ccc(=O)n1-c1c(F)cc(OCCCN[C@H](C(=O)O)C2CCCCC2)cc1F [Example 107, (2S)-[(3-{4-[6-amino-5-(2,4-difluorobenzoyl)-2-oxopyridin-1(2H)-yl]-3,5-difluorophenoxy}propyl)amino](cyclohexyl)acetic acid] | 
13 | 6.00 to 7.00 |  | CC(C)C[C@H](NC(=O)COc1ccc(-n2c(N)c(C(=O)c3ccc(F)cc3)ccc2=O)cc1)C(=O)O [Example 110, N-({4-[6-Amino-5-(4-fluorobenzoyl)-2-oxopyridin-1(2H)-yl]phenoxy}-acetyl)-L-leucine] | 
